From ChEMBL document CHEMBL1129561 (J Med Chem, 1996)

Assays:
[1] = target: T1, Glucocorticoid receptor (Homo sapiens, UniProt P04150)
T1 sequence (P04150 whole entry): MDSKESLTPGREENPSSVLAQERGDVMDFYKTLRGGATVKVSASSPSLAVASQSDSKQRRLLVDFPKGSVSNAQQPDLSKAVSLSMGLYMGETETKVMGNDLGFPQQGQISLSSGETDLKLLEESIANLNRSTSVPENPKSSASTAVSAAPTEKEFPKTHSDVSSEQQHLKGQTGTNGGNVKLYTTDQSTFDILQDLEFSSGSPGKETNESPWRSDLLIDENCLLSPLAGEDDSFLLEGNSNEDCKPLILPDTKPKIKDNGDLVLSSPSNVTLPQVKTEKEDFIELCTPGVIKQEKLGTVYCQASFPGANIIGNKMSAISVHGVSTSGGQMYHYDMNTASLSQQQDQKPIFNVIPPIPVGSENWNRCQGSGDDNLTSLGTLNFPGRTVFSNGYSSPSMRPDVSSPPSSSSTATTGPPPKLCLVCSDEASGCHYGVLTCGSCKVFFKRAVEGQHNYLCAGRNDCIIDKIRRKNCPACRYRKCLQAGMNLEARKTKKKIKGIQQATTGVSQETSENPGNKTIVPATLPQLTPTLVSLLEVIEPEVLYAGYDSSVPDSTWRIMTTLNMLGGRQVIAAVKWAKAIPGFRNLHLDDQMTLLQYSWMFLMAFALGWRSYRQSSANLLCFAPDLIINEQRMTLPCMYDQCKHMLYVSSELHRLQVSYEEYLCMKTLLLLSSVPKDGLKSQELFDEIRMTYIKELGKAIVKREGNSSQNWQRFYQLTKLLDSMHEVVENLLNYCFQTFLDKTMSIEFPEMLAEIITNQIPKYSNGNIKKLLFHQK
Description: Binding affinity was determined for human glucocorticoid receptor(hGR).

[2] = target: T2, Mineralocorticoid receptor (Homo sapiens, UniProt P08235)
T2 sequence (P08235 whole entry): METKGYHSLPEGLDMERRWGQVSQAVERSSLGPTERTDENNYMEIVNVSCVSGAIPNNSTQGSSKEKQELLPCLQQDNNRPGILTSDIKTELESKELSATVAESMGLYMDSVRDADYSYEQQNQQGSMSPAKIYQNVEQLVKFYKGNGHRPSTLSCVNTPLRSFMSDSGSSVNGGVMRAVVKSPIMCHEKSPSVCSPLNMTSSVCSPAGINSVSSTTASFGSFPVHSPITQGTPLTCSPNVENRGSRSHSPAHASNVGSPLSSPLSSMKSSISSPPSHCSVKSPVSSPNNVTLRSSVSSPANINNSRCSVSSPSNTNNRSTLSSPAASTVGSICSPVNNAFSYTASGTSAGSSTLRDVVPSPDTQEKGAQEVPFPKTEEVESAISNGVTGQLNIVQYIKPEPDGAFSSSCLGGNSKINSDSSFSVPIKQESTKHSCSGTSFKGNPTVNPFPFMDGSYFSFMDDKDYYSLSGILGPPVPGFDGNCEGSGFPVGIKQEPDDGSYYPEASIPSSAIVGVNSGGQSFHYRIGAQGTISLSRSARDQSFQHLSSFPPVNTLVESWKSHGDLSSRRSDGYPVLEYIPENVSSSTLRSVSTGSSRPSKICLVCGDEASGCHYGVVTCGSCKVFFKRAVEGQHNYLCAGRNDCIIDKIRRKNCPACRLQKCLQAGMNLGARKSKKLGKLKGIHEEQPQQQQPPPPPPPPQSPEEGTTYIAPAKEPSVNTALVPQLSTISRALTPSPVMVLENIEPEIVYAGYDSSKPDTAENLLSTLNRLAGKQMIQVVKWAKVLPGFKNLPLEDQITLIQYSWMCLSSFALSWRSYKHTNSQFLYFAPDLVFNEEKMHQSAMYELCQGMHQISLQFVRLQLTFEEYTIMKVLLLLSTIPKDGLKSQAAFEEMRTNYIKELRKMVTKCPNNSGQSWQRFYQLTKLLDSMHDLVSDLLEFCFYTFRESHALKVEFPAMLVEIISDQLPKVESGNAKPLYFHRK
Description: Inhibitory activity against human mineralocorticoid receptor (hMR)

[3] = target: T3, Progesterone receptor (Homo sapiens, UniProt P06401)
T3 sequence (P06401 whole entry): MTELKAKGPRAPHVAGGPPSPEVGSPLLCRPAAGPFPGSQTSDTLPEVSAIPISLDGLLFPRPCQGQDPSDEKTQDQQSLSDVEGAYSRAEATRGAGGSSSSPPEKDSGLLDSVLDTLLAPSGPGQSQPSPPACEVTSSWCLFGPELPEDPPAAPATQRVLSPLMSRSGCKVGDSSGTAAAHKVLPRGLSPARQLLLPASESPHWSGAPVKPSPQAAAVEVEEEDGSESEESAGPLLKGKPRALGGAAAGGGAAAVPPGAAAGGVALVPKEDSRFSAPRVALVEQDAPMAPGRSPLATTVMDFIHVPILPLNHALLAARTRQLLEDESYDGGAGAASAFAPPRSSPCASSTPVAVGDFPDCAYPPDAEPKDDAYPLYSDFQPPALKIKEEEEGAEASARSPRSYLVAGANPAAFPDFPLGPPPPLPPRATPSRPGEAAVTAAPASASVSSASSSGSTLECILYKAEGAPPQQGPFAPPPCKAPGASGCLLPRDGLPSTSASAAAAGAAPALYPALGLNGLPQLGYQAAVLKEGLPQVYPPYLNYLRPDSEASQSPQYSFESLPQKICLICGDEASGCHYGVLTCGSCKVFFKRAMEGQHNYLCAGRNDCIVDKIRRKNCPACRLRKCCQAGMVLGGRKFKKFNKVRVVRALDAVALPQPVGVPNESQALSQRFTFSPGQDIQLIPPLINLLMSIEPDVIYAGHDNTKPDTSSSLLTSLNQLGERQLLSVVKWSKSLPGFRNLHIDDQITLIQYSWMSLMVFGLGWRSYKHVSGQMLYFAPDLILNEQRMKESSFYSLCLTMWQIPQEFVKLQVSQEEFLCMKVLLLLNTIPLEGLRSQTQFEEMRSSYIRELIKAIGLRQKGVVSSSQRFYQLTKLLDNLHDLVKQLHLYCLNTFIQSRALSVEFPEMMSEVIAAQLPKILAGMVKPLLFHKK

SMILES: C=C1C=C(C)CC(C)(C)C1Cc1ccc([N+](=O)[O-])cc1 (stereo not drawn)
- Ki [1]: 5.42 µM
- IC50 [2]: > 10 µM
- Ki [3]: 0.0535 µM
